# Experimental data reported in patent US8268809B2, “Kinase inhibitors for preventing or treating pathogen infection and method of use thereof” (priority 2006, dated 2012).
# “Also recorded” adds a separate entry of the source.
# System: vaccinia virus
# Assay type: cell-based
# Throughout, for VACCINIA PLAQUE ASSAY 2: test concentration or dose not given here.
SMILES,Class category of infected monolayers in plaque assay,VACCINIA PLAQUE ASSAY 2,VACCINIA Plaque Assay,"Plaque phenotype due to drug treatment (FIGS. 1, 2, 4)"
COc1ccccc1Nc1cc(-c2ccc3[nH]ccc3c2)ncn1 [Eph2_wbz 216],Class III,NO PLAQUES,SLIGHTLY SMALLER PLAQUES,–
COc1ccccc1Nc1cc(-c2ccc(NC(=O)CCC(=O)O)cc2)ncn1 [Eph2_wbz 217],–,–,SLIGHTLY SMALLER PLAQUES,–
COc1ccccc1NS(=O)(=O)c1cccc(NC(=O)CCOc2ccc3c(=O)[nH]ccc3c2)c1 [JAK2F],Class II,SLIGHTLY SMALLER PLAQUES,SMALL PLAQUES,–
CCN(CC)CCNC(=O)/C=C\C(=O)Nc1ccc2ncnc(Nc3cccc(I)c3)c2c1 [JGAP-11],–,–,MORE PLAQUES THAN WT,–
CN(C)CCCNC(=O)/C=C\C(=O)Nc1ccc2ncnc(Nc3cccc(I)c3)c2c1 [JGAP-13],–,–,MORE PLAQUES THAN WT,more plaque formations than wild type; also recorded: more plaques than WT
COc1ccc(Nc2nccn3c(Br)cnc23)cc1 [LG2-9],Class III,PINPOINTS,SLIGHTLY SMALLER PLAQUES,–
CN(C)CCNC(=O)c1ccc(-c2cnc3c(Nc4ccc(Oc5ccccc5)cc4)nccn23)cc1 [LG2-11],Class III,NO PLAQUES,"CPE, PINPOINT PLAQUES",–
COc1ccc(Nc2nccn3c(-c4cccc(C(N)=O)c4)cnc23)cc1 [LG2-13],Class III,SLIGHTLY SMALLER PLAQUES,PINPOINT PLAQUES,–
CC(C)c1ccc(Nc2nccn3c(Br)cnc23)cc1 [LG2-60],–,NO PLAQUES,–,–
COc1cc(-c2cnc3c(Nc4ccccc4)nccn23)ccc1O [LG2-62],Class II,SMALL PLAQUES,SMALLER PLAQUES THAN WT,–
O=C(Nc1cccc(-c2ccc3nnc(-c4ccco4)n3n2)c1)Sc1ccccc1 [LG2-79],Class II,SMALL PLAQUES,"SMALLER PLAQUES, COMETS?",–
COc1cccc(-c2cnc3c(Nc4ccccc4)nccn23)c1 [LG2-85],Class III,NO PLAQUES,PINPOINT PLAQUES,–
Fc1ccc(CNc2nccn3c(Br)cnc23)cc1 [LG2-91],Class III,NO PLAQUES,NO PLAQUES,no pinpoint plaque formed; also recorded: no plaques
Brc1cnc2c(NCc3cccs3)nccn12 [LG2-95],Class III,NO PLAQUES,PINPOINT PLAQUES,–
O=C(NCCO)c1cccc(-c2cnc3c(NCc4ccc(F)cc4)nccn23)c1 [LG2-96],Class III,NO PLAQUES,NO PLAQUES,no pinpoint plaque formed; also recorded: no plaques
O=C(NCCO)c1cccc(-c2cnc3c(NCc4cccs4)nccn23)c1 [LG2-98],Class III,PINPOINTS,"SMALL PLAQUES, WITH TAILS",–
Brc1cnc2c(NCC3CC3)nccn12 [LG2-101],Class III,PINPOINTS,"SMALL PLAQUES, WITH TAILS",–
COc1cc(OC)cc(-c2cnc3c(NCC4CC4)nccn23)c1 [LG2-102],Class III,NO PLAQUES,NO PLAQUES,–
O=C(Nc1cccc(-c2ccc(Cl)nn2)c1)Oc1ccccc1 [LG2-111],–,–,PINPOINT PLAQUES,–
Cn1c(=O)c(-c2c(Cl)cccc2Cl)cc2cnc(Nc3ccc(Br)cc3)nc21 [PD-Br],Class III,NO PLAQUES,"SMALL PLAQUES, CPE",–
Cc1ccc(NC(=O)c2ccc(CN3CCN(CCO)CC3)cc2)cc1Nc1nccc(-c2cccnc2)n1 [STI-OH],Class III,SMALL PLAQUES,PINPOINT PLAQUES,–
Cc1ccc(NC(=O)c2ccc(CN3CCN(CCF)CC3)cc2)cc1Nc1nccc(-c2cccnc2)n1 [STLF2],Class III,NO PLAQUES,PIN POINT PLAQUES,–

SMILES,Class category of infected monolayers in plaque assay,VACCINIA PLAQUE ASSAY 2,VACCINIA Plaque Assay,"Plaque phenotype due to drug treatment (FIGS. 1, 2, 4)"
Cc1ccc(NC(=O)c2ccc(CN3CCN(Cc4ccc(I)cc4)CC3)cc2)cc1Nc1nccc(-c2cccnc2)n1 [STLL3],Class III,NO PLAQUES,PINPOINT PLAQUES,–
Cc1ccc(NC(=O)c2ccc(CN3CCN(C)CC3)cc2)cc1Nc1nccc(-c2cnccc2C)n1 [StiAF3_Ue],Class III,NO PLAQUES,NO PLAQUES,–
Cc1ccc(-c2ccnc(Nc3cc(NC(=O)c4ccc(CN5CCN(C)CC5)cc4)ccc3C)n2)cn1 [WBZ-4],Class II,SMALL PLAQUES,SMALL PLAQUES,–
Cn1c(=O)c(-c2c(Cl)cccc2Cl)cc2cnc(Nc3cccc(N)n3)nc21 [YYA104],Class III,NO PLAQUES,PINPOINT PLAQUES,–
Cn1c(=O)c(-c2c(Cl)cccc2Cl)cc2cnc(NC3CCN(Cc4ccccc4)CC3)nc21 [YYA188],Class III,NO PLAQUES,NO PLAQUES,–
Cn1c(=O)c(-c2c(Cl)cccc2Cl)cc2cnc(Nc3ccc(O)cc3)nc21 [YYA190],–,–,"CPE (MONO- LAYER NOT INFECTED WITH VV; DRUG DE- STROYED MONO- LAYER, THOUGH)",–
Cn1c(=O)c(-c2c(Cl)cccc2Cl)cc2cnc(NC3CCCCC3)nc21 [YYA194],Class III,NO PLAQUES,PINPOINT PLAQUES,–
Cn1c(=O)c(-c2c(Cl)cccc2Cl)cc2cnc(Nc3cccc(C(C)(C)C)c3)nc21 [YYA195],Class III,NO PLAQUES,NO PLAQUES,–
O=C(Nc1cccc(-c2ccc(Cl)nn2)c1)c1cccc([N+](=O)[O-])c1 [YYB19],Class III,NO PLAQUES,PINPOINT PLAQUES,–
COc1cc(C(=O)Nc2cccc(-c3ccc4nnc(-c5ccccc5)n4n3)c2)cc(OC)c1OC [YYB21],–,–,–,damaged monolayer
O=C(Nc1cccc(-c2ccc3nncn3n2)c1)c1cccc([N+](=O)[O-])c1 [YYB31],Class III,PINPOINTS,FEW COMETS,–
O=C(Nc1cccc(-c2ccc3nnc(-c4cccs4)n3n2)c1)c1cccc([N+](=O)[O-])c1 [YYB32],Class III,SMALL PLAQUES,SMALLER PLAQUES,–
O=C(Nc1cccc(-c2ccc3nnc(-c4ccc[nH]4)n3n2)c1)c1cccc([N+](=O)[O-])c1 [YYB34],–,–,LARGE COMETS,–
CCc1nnc2ccc(-c3cccc(NC(=O)c4ccc(OC)c(OC)c4)c3)nn12 [YYB41],Class II,SMALL PLAQUES,SMALL PLAQUES,–
COc1ccc(OC)c(S(=O)(=O)Nc2cccc(-c3ccc4nnc(-c5cccs5)n4n3)c2)c1 [YYB44],Class II,SMALL PLAQUES,MEDIUM PLAQUES,–
COC(=O)C1(Cc2ccccc2)OC(=O)C(O)=C1c1ccccc1 (centres unmarked) [butyro- lactones-1],–,–,SMALL PLAQUES WITH LARGE TAILS OR CPE,more plaque formations than wild type; also recorded: more plaques than WT
Cc1ccc(-n2c(=O)[nH]c3c(C(N)=O)nc(-c4ccc([N+](=O)[O-])cc4[N+](=O)[O-])nc32)cc1 [dm-I-180],–,–,LARGE TAILS,–
Cc1ccc(-n2c(=O)[nH]c3c(C(N)=O)nc(-c4ccc(-c5cccs5)s4)nc32)cc1 [dm-I-184],–,SLIGHTLY SMALLER PLAQUES,–,–
Cc1ccc(-n2c(=O)[nH]c3c(C(N)=O)nc(-c4c(F)cc(Cl)cc4F)nc32)cc1 [dm-I-187],Class III,NO PLAQUES,SMALL PLAQUES,small plaques with no comets; also recorded: smaller (pinpoint) plaques with no comets
Cc1ccc(-n2c(=O)[nH]c3c(C(N)=O)nc(-c4c(Cl)cccc4[N+](=O)[O-])nc32)cc1 [dm-I-193],Class III,NO PLAQUES,SMALL PLAQUES,–
COc1ccc(-c2nc(C(N)=O)c3[nH]c(=O)n(-c4ccc(C)cc4)c3n2)cc1OC [dm-I-196],Class III,PINPOINTS,"SMALL PLAQUES, NO TAILS",small plaques with no comets; also recorded: smaller (pinpoint) plaques with no comets
Cc1ccc(-n2c(=O)[nH]c3c(C(N)=O)nc(C4CCCCC4)nc32)cc1 [dm-I-203],Class III,PINPOINTS,SMALL PLAQUES,–
